Data: US20250170149A1, “NEUROACTIVE STEROIDS FOR TREATMENT OF GASTROINTESTINAL DISEASES OR CONDITIONS” (Sage Therapeutics, Inc., priority 2022, published 2025)
Entries after “also recorded” stand apart in the source; their conditions may differ. Like-named read-outs stand apart in the source and are kept apart here.

Key:
[1] = system: patients with major depressive disorder (MDD); conditions: cited from earlier work; for rates of gastrointestinal adverse reactions compared to placebo, words: 15 most commonly used antidepressants in MDD, Oliva V, et al. 2021; for gastrointestinal tolerability among antidepressants, words: Oliva V. et al. 2021 meta-analysis in MDD
[2] = system: participants with major depressive disorder (MDD); assay: Treatment-emergent adverse events (TEAEs) and serious AEs in study NCT04476030, safety set; format: in vivo, human; conditions: one patient, about 1 hour after zuranolone 50 mg on Day 7; resolved within 22 minutes
Procedure: A randomized, double-blind, parallel-group, active/placebo-controlled study (NCT04476030) in participants with major depressive disorder (MDD) was conducted. The study evaluated the efficacy and safety of zuranolone 50 mg co-initiated with standard-of-care (SOC) antidepressant therapies (ADTs) (zuranolone+ADT) vs placebo co-initiated with SOC ADT (placebo+ADT) in adults with MDD. Patients were randomized 1:1 to once-daily, blinded zuranolone +ADT or placebo+ADT for 14 days then continued open-label SOC ADT for 28 more days.
An AE could therefore be any unfavorable and unintended sign (including an abnormal laboratory finding), symptom or disease temporally associated with the use of a medicinal (investigational) product whether or not related to the medicinal (investigational) product. In clinical studies, an AE could include an undesirable medical condition occurring at any time, including baseline or washout periods, even if no study treatment had been administered.
A treatment emergent adverse event (TEAE) was defined as an AE with onset after the start of investigational product (IP), or any worsening of a pre-existing medical condition/AE with onset after the start of IP and throughout the study. The term IP included any Sage IP, a comparator, or a placebo administered in a clinical study. […]

| Compound | rates of gastrointestinal adverse reactions compared to placebo, words [1] | other results |
| --- | --- | --- |
| CN(C)CCC[C@@]1(c2ccc(F)cc2)OCc2cc(C#N)ccc21 [escitalopram] | higher rates of gastrointestinal adverse reactions | gastrointestinal tolerability among antidepressants, words [1]: least tolerated antidepressants on the gastrointestinal tract; gastrointestinal tolerability among antidepressants, words ([1]; listed as Escitalopram): least tolerated antidepressants on the GI tract |
| CCN(CC)C(=O)[C@@]1(c2ccccc2)C[C@H]1CN [levomilnacipran] | higher rates of gastrointestinal adverse reactions | – |
| COc1ccc2cccc(CCNC(C)=O)c2c1 [agomelatine] | higher rates of gastrointestinal adverse reactions | – |
| C[C@@]1(O)CC[C@H]2[C@H](CC[C@@H]3[C@@H]2CC[C@]2(C)[C@@H](C(=O)Cn4cc(C#N)cn4)CC[C@@H]32)C1 [zuranolone] | – | serious TEAE assessed as related to zuranolone by the investigator [2]: seizure-like phenomenon; also recorded: seizure-like phenomena |
| CCOc1ccccc1OC(c1ccccc1)C1CNCCO1 (stereo not drawn) [reboxetine] | higher rates of gastrointestinal adverse reactions | – |
| CNCC[C@H](Oc1cccc2ccccc12)c1cccs1 [duloxetine] | higher rates of gastrointestinal adverse reactions | – |
| COCCCC/C(=N\OCCN)c1ccc(C(F)(F)F)cc1 [fluvoxamine] | higher rates of gastrointestinal adverse reactions | – |
| CN1CCN2c3ncccc3Cc3ccccc3C2C1 (stereo not drawn) [mirtazapine] | higher rates of gastrointestinal adverse reactions | – |
| Fc1ccc([C@@H]2CCNC[C@H]2COc2ccc3c(c2)OCO3)cc1 [paroxetine] | higher rates of gastrointestinal adverse reactions | – |
| CNCCC(Oc1ccc(C(F)(F)F)cc1)c1ccccc1 (stereo not drawn) [fluoxetine] | higher rates of gastrointestinal adverse reactions | – |
| CN[C@H]1CC[C@@H](c2ccc(Cl)c(Cl)c2)c2ccccc21 [sertraline] | higher rates of gastrointestinal adverse reactions | gastrointestinal tolerability among antidepressants, words [1]: least tolerated antidepressants on the gastrointestinal tract; also recorded: least tolerated antidepressants on the GI tract; incidence of diarrhea, words ([1]; compared to other SSRIs and venlafaxine, Gartlehner G, et al. 2011): higher incidence of diarrhea |
| COc1ccc(C(CN(C)C)C2(O)CCCCC2)cc1 (stereo not drawn) [venlafaxine] | higher rates of gastrointestinal adverse reactions | rates of nausea and vomiting, words ([1]; compared to SSRIs and duloxetine, Gartlehner G, et al. 2011): higher rates of nausea and vomiting |
| CN(C)CCCC1(c2ccc(F)cc2)OCc2cc(C#N)ccc21 (stereo not drawn) [citalopram] | higher rates of gastrointestinal adverse reactions | – |
| Cc1ccc(Sc2ccccc2N2CCNCC2)c(C)c1 [vortioxetine] | higher rates of gastrointestinal adverse reactions | – |
| CN(C)CC(c1ccc(O)cc1)C1(O)CCCCC1 (stereo not drawn) [desvenlafaxine] | higher rates of gastrointestinal adverse reactions | – |
| CC(NC(C)(C)C)C(=O)c1cccc(Cl)c1 (stereo not drawn) [bupropion] | higher rates of gastrointestinal adverse reactions | – |
